From ChEMBL document CHEMBL1201862, “PubChem BioAssay data set” (2004)
Active and inactive are the calls of the source.

Key:
[1] = NIH-3T3 fibroblast cytotoxicity, dose response, cytotoxicity control, cell-based, fluorescence, Alamar Blue, secondary assay (AID 2327); assay type: functional;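 note: NIH-3T3 mouse fibroblasts cultured with fluconazole at 8 µg/mL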
[2] = system: HEK293; assay: inhibition of NOD1-driven NF-kB reporter – cell-based, luminescence, uHTS, primary screen (AID 1578); assay type: functional; settings: Homo sapiens
[3] = system: Streptococcus sp. 'group A'; assay: Streptococcus pyogenes SK(-)GAS viability under kanamycin – luminescence, BacTiterGlo, confirmation, counter-screen for streptokinase expression inhibitor project, dose response (AID 1900); assay type: functional, organism-based
[4] = system: HEK293; assay: cells; assay type: functional, cell-based; settings: Homo sapiens
[5] = target: T1, Streptokinase A (Streptococcus pyogenes serotype M1, UniProt P10520); assay: viability-normalized secreted streptokinase activity reduction – plasminogen activation absorbance, OD405, dose response (AID 1914); assay type: functional, Streptococcus pyogenes M1 GAS;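 note: secreted streptokinase activity via plasminogen activation per viability signal from cell pellet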
T1 sequence (P10520 whole entry): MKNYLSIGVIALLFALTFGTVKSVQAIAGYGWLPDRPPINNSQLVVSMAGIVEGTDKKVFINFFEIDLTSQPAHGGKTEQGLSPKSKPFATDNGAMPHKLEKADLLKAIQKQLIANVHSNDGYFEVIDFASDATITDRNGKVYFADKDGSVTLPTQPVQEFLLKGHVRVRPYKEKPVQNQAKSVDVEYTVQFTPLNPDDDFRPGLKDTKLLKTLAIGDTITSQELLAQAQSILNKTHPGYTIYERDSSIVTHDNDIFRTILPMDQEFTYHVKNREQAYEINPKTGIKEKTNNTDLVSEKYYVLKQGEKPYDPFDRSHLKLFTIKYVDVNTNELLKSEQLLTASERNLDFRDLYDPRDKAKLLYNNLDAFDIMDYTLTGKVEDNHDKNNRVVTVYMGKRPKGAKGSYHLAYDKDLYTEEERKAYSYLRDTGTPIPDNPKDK

[6] = fluconazole-exposed Candida albicans growth modulators – fluorescence, retest, confirmation (AID 2467); assay type: functional, cell-based
[7] = system: HEK293; assay: cells; assay type: functional, cell-based; settings: Homo sapiens; remark: listed apart in the source
[8] = system: HEK293; assay: NOD2 signaling inhibitors in MDP-stimulated cells, cell-based, uHTS, luminescence (AID 2001); assay type: functional; settings: Homo sapiens
[9] = target: Serine/threonine-protein phosphatase (Candida dubliniensis (strain CD36 / CBS 7987 / NCPF 3949 / NRRLY-17841) (Yeast), UniProt B9W6M3); assay: blockers of CaCl2-induced CDRE-lacZ signaling – S. cerevisiae, luminescence, secondary, dose response (AID 2388); assay type: functional, cell-based;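 note: yeast reporter cells carrying a calcineurin-responsive lacZ construct stimulated with calcium chloride; luminescent beta-galactosidase reporter signal in whole cells rather than isolated phosphatase activity; potency for inhibition where a drop in reporter signal means calcineurin blockade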
Serine/threonine-protein phosphatase, sequence (B9W6M3 whole entry): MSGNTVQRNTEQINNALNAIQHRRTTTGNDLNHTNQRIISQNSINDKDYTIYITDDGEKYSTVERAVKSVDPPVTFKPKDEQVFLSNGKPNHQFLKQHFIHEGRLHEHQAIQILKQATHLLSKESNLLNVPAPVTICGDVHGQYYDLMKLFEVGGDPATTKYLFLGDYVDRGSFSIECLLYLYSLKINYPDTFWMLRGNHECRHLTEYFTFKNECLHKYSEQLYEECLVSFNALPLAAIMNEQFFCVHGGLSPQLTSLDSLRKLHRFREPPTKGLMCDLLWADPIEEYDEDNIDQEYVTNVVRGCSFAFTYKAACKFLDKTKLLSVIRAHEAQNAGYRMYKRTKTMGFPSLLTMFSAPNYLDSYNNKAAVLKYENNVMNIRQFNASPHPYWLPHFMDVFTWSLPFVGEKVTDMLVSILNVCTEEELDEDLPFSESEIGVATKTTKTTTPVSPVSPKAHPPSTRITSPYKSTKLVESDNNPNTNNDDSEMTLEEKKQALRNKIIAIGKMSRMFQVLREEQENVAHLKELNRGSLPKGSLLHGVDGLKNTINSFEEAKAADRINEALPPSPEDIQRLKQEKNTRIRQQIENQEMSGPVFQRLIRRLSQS

[10] = system: Streptococcus; assay: GAS UMAA2166 growth inhibition – luminescence, BacTiterGlo, counter-screen for streptokinase expression inhibitor project, dose response (AID 1915); assay type: functional, organism-based;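 note: potency for reduction of bacterial viability or growth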
[11] = target: Tumor necrosis factor (Homo sapiens, UniProt P01375); assay: analog potency on TNFa NF-kB signaling – cell-based, revised, SAR follow-up (AID 2337); assay type: functional
Tumor necrosis factor, sequence (P01375 whole entry, the tested form may be a part): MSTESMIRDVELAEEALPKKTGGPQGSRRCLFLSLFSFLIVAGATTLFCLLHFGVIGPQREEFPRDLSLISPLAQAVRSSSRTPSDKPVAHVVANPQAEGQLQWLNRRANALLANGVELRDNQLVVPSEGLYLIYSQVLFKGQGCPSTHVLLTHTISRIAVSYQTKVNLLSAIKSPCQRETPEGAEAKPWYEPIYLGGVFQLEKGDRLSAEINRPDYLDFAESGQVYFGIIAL

[12] = target: Nucleotide-binding oligomerization domain-containing protein 1 (Homo sapiens, UniProt Q9Y239); assay: blockers of NOD1 pathway activity – revised, SAR follow-up (AID 2333); assay type: functional
Nucleotide-binding oligomerization domain-containing protein 1, sequence (Q9Y239 whole entry, the tested form may be a part): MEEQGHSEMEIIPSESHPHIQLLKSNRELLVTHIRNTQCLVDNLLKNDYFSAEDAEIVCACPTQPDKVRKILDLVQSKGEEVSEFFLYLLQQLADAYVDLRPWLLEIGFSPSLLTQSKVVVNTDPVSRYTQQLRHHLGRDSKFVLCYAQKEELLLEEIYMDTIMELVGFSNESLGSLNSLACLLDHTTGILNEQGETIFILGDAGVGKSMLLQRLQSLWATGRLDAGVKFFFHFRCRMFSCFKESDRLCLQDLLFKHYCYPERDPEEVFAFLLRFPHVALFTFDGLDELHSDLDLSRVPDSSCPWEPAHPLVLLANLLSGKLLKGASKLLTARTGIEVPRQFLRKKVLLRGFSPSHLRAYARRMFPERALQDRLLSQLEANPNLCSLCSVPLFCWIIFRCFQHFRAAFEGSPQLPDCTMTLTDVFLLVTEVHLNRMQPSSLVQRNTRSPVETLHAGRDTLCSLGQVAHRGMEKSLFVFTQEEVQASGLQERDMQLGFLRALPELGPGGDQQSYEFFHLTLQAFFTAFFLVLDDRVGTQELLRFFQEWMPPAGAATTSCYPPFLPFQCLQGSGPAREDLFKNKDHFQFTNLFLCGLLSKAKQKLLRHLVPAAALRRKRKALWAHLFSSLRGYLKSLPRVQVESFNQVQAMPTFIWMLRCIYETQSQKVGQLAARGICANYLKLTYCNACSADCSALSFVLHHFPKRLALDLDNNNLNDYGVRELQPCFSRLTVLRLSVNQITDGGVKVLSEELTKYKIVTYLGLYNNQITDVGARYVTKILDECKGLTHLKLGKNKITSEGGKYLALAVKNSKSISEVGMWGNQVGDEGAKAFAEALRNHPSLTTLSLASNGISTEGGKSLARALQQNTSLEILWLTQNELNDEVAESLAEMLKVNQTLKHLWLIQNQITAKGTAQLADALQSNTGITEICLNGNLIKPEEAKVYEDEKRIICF

[13] = target: Nucleotide-binding oligomerization domain-containing protein 2 (Homo sapiens, UniProt Q9HC29); assay: PubChem AID 2334; assay type: functional
Nucleotide-binding oligomerization domain-containing protein 2, sequence (Q9HC29 whole entry, the tested form may be a part): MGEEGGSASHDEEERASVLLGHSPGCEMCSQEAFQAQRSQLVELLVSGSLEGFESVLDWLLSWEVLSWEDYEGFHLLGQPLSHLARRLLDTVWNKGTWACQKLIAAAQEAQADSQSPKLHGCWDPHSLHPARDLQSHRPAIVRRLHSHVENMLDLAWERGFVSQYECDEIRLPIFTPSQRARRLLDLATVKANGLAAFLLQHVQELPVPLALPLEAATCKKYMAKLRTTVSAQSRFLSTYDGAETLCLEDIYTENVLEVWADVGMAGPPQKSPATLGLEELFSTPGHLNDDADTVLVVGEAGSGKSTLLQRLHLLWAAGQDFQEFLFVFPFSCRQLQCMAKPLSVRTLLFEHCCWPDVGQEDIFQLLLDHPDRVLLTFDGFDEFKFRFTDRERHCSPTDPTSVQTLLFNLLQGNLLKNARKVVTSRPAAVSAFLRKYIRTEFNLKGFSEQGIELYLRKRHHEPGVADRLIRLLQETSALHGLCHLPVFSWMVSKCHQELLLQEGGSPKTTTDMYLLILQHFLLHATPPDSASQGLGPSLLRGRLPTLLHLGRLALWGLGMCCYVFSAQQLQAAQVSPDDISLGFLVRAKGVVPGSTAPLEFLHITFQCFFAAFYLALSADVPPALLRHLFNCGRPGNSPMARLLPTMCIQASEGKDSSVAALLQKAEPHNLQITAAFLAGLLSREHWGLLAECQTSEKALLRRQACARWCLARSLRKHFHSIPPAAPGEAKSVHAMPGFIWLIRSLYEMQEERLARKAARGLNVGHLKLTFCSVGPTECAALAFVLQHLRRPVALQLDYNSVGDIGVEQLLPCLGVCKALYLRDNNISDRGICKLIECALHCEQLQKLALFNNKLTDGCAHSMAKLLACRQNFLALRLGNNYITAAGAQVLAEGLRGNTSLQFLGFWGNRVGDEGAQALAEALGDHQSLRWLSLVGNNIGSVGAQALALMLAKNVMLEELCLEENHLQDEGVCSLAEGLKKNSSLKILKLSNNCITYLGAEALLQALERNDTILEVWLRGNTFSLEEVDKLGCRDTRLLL

[14] = target: ATP-dependent molecular chaperone HSP82 (Candida albicans (strain WO-1) (Yeast), UniProt C4YTQ8); assay: steroid-induced GRE reporter decrease in yeast – S. cerevisiae, luminescence, Hsp90 inhibitor project, dose response (AID 2400); assay type: functional, cell-based;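 note: beta-galactosidase luminescence from glucocorticoid response element reporter as proxy for Hsp90 function; inhibitor potency where signal loss means Hsp90 inhibition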
ATP-dependent molecular chaperone HSP82, sequence (C4YTQ8 whole entry, the tested form may be a part): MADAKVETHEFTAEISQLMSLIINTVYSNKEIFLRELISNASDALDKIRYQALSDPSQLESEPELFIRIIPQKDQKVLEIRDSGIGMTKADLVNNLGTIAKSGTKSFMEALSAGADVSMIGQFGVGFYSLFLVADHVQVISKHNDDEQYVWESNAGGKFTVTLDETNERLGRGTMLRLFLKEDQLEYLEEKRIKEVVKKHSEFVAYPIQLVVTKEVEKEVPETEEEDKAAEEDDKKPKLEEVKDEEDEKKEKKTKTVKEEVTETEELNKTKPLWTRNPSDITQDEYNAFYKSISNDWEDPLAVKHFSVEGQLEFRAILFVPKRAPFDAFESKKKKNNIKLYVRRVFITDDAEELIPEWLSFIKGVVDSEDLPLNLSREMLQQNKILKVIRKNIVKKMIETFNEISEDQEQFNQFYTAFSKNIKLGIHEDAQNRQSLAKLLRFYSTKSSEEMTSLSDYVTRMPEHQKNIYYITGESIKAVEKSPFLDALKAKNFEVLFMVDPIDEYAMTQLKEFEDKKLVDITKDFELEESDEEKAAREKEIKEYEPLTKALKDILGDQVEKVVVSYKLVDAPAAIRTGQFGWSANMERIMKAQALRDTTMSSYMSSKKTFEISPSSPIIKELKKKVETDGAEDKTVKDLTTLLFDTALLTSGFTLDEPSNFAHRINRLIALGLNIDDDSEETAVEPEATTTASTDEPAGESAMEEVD

[15] = target: T2, Carboxy-terminal domain RNA polymerase II polypeptide A small phosphatase 1 (Homo sapiens, UniProt Q9GZU7); assay: CTDSP1 inhibitors, concentration-response, biochemical, absorbance readout, ultra-high-throughput screen actives (AID 540297); assay type: functional
T2 sequence (Q9GZU7 whole entry): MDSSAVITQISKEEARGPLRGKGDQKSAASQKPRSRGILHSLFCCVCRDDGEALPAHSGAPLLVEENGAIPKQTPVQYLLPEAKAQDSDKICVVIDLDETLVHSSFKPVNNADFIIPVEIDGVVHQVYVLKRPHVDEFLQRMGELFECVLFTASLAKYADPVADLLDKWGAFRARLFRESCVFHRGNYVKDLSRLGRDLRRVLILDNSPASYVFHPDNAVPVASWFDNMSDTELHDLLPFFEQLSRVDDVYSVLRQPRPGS

[16] = target: T3, Corticotropin-releasing factor receptor 2/Corticotropin-releasing factor-binding protein (Homo sapiens, UniProt P24387+Q13324); assay: Dose Response confirmation of uHTS hits for small molecule antagonists of the CRF-binding protein and CRF-R2 receptor complex.; assay type: functional; settings: read-out: IC50_Mean
T3 sequence (Q13324 whole entry): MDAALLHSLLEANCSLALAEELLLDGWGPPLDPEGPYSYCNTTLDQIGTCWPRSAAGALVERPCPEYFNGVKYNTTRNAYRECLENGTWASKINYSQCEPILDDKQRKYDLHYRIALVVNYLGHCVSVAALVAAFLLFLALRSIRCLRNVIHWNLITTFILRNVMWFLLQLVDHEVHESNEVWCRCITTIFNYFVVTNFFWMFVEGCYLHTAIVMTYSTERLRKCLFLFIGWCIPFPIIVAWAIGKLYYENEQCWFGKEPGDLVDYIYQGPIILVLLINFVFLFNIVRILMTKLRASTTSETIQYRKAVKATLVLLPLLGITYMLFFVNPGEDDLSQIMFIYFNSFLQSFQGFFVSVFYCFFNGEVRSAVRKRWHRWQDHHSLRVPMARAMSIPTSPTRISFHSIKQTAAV
T3 sequence (P24387 whole entry): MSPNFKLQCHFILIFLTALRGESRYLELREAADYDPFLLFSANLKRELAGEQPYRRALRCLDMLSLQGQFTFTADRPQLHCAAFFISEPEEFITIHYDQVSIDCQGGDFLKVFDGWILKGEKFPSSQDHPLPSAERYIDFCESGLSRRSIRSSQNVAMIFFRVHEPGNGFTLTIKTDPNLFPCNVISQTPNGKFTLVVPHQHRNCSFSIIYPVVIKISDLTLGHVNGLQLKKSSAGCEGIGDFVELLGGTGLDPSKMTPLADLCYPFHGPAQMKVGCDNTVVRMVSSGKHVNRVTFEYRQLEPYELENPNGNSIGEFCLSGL

[17] = target: T3, Corticotropin-releasing factor receptor 2/Corticotropin-releasing factor-binding protein; assay: activators of CRF receptor 2 with binding protein – uHTS hits, confirmation (AID 602473); assay type: functional; settings: read-out: EC50_Mean
[18] = blockers of CRF-binding protein–CRF-R2 complex – cell-based, uHTS hits, 384-well, dose response (AID 651639); assay type: functional, Homo sapiens; settings: read-out: IC50_Mean
[19] = system: HEK293; assay: cells; settings: Homo sapiens
[20] = target: Beta-2 adrenergic receptor (Homo sapiens, UniProt P07550); assay: ADRB2 activation measured by internalization – cell-based, FAP fluorogen, flow cytometry, cherry pick 1, dose response (AID 588763); assay type: functional
Beta-2 adrenergic receptor, sequence (P07550 whole entry): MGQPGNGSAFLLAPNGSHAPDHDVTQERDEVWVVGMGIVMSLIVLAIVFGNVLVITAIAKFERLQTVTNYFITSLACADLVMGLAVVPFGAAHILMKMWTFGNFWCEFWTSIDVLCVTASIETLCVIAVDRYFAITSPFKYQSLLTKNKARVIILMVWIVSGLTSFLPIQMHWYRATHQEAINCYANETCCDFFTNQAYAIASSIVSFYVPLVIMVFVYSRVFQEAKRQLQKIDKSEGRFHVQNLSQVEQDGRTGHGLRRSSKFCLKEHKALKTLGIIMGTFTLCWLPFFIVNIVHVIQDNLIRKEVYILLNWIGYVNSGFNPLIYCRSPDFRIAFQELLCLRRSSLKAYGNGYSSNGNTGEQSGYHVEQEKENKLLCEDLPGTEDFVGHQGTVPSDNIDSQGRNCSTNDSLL

[21] = target: DNA damage-inducible transcript 3 protein (Mus musculus, UniProt P35639); assay type: functional, Cricetulus griseus
DNA damage-inducible transcript 3 protein, sequence (P35639 whole entry, the tested form may be a part): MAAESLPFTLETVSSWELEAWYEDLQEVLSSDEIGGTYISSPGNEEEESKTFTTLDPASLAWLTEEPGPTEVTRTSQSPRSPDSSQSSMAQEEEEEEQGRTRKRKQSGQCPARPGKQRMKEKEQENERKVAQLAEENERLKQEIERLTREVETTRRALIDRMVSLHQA

[22] = system: CHO; assay: CHO cell viability loss, potency – luminescence, cytotoxicity control for TLR9-MyD88 binding inhibitor project, dose response (AID 588339); assay type: functional, cell-based, hamster; settings: Cricetulus griseus;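 note: CHO cells stably coexpressing TLR9 and MyD88 fusions from primary screen; compound exposure lasted 48 hours before viability readout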
[23] = target: T4, High affinity choline transporter 1 (Homo sapiens, UniProt Q9GZV3); assay: human choline transporter blockers, potency – cell-based, 5-point CRC, membrane potential dye, dose response (AID 504840); assay type: functional
T4 sequence (Q9GZV3 whole entry): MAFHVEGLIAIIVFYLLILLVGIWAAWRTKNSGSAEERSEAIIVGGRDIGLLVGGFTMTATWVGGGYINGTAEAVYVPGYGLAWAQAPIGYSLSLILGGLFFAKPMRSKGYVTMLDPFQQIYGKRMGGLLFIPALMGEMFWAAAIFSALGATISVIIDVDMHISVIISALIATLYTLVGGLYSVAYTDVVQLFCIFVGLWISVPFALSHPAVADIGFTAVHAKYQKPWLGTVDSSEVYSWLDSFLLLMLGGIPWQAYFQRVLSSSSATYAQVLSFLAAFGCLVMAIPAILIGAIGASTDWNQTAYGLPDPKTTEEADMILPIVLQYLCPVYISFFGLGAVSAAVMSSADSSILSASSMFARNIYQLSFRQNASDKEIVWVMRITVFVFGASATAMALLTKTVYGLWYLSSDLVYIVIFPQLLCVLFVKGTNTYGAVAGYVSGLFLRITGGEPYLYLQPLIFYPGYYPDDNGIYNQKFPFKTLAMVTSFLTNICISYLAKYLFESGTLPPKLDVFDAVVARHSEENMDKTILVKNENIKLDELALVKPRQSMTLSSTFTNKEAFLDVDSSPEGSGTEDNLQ

[24] = target: Beta Lactamase (Pseudomonas aeruginosa, UniProt Q932Y6); assay: BLA reporter interference, concentration series – BLA reporter cells, FRET fluorescence, artefact control for TLR9-MyD88 binding inhibitor project, dose response (AID 588341); assay type: cell-based;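 note: cell based assay in CHO-K1 cells stably expressing beta-lactamase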
Beta Lactamase, sequence (Q932Y6 whole entry): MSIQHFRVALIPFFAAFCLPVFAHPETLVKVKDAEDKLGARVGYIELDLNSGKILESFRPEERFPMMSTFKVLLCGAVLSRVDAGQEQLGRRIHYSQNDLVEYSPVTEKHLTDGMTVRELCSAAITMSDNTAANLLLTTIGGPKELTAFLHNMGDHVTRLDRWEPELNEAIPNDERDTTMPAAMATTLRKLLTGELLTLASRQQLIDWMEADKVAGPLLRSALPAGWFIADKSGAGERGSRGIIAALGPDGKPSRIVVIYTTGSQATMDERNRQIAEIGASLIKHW

[25] = reduction of Shn3 3'UTR-driven luciferase in osteoblasts – cell-based, Clone20 osteoblasts, firefly luciferase, cherry-picked, dose response (AID 624132); assay type: functional;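 note: firefly luciferase luminescence from reporter carrying the Shn3 3'UTR in osteoblasts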
[26] = loss of viability in HepG2 cells – cell-based, CellTiter-Glo, cherry-picked, cytotoxicity control for Shn3 inhibitor project, dose response (AID 624134); assay type: functional
[27] = non-specific 3'UTR reporter inhibition in Clone20-Shn3RL – cell-based, Renilla luciferase, cherry-picked, counter-screen for Shn3 inhibitor project, dose response (AID 624133); assay type: functional

O=[N+]([O-])c1ccc(O)c(Nc2ncnc3ccc(Br)cc23)c1
EC50 [1]: > 160 µM (inactive) | EC50 [2]: 2.64 µM (active) | EC50 [3]: 6.15 µM (active) | IC50 [4]: > 20 µM (inactive) | EC50 [5]: > 150 µM (not active) | EC50 [6]: 0.429 µM (active) | IC50 [7]: > 20 µM (inactive) | IC50 [8]: 18.8 µM (inactive) | EC50 [9]: > 180 µM (inactive) | EC50 [10]: 46.2 µM (active) | IC50 [11]: 6.28 µM (active) | IC50 [12]: 2.15 µM (active) | IC50 [13]: 3.53 µM (active) | EC50 [14]: > 160 µM (inactive) | IC50 [15]: 5.46 µM (active) | IC50 [16]: 5.76 µM (active) | EC50 [17]: 5.78 µM (active) | IC50 [18]: > 20 µM (inactive) | IC50 [19]: > 20 µM (inactive)

COc1ccc(CN2CCC(Oc3ccc(C(=O)N4CCCCC4)cc3)CC2)cc1C
EC50 [20]: 25.3 µM (inactive)

CCOC(=O)c1nc(S(C)(=O)=O)ncc1Cl
Absolute IC50 (CHOP) [21]: 10 µM | IC50 [22]: 5.62 µM (active) | IC50 [23]: 19.1 µM (active) | IC50 [24]: 22.4 µM (inactive) | AC50 [25]: 6.37 µM (active) | AC50 [26]: 35.4 µM (active) | AC50 [27]: 20.5 µM (active)
